In the supplement of paper PMC11061612:

Assays:
Test in all cases: combination Emax (second highest fraction inhibited in the dose matrix, 72 h); higher = more inhibition; extreme values may be limits of the assay
[1] = system: DBTRG-05MG (Glioblastoma)
In short: (§1)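 Cell lines grown in DMEM/F12 or RPMI with 10% FBS were plated in 1536-well plates and held 24 hours at 37°C, 5% CO2 before 72 hours of exposure to two-drug dose matrices, with DMSO typically at 0.2%. CellTiter-Glo 2.0 luminescence gave viability, which was converted to inhibition. Vehicle wells were set to 0 and blank wells to 1. Combination Emax is the second-highest inhibition in the matrix, and Bliss excess is the observed combination effect minus the expected EA + EB − EA·EB, where EA and EB are the single-agent effects.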

[2] = system: T47D (Breast Carcinoma)
In short: as §1

[3] = system: SKG-IIIa (Cervical Carcinoma)
In short: as §1

[4] = system: SNU-C2B (Colorectal Carcinoma)
In short: as §1

[5] = system: NCI-H2373 (Mesothelioma)
In short: as §1

[6] = system: WM35 (Melanoma)
In short: as §1

[7] = system: NCI-H596 (Other Solid Carcinomas)
In short: as §1

[8] = system: NCI-H1341 (Small Cell Lung Carcinoma)
In short: as §1

[9] = system: COR-L88 (Small Cell Lung Carcinoma)
In short: as §1

[10] = system: LS-1034 (Colorectal Carcinoma)
In short: as §1

[11] = system: BHT-101 (Thyroid Gland Carcinoma)
In short: as §1

[12] = system: KP-4 (Pancreatic Carcinoma)
In short: as §1

[13] = system: IST-MEL1 (Melanoma)
In short: as §1

[14] = system: C-33-A (Cervical Carcinoma)
In short: as §1

[15] = system: OAW-28 (Ovarian Carcinoma)
In short: as §1

[16] = system: SCC-4 (Oral Cavity Carcinoma)
In short: as §1

[17] = system: OVCAR-3 (Ovarian Carcinoma)
In short: as §1

[18] = system: UACC-257 (Melanoma)
In short: as §1

[19] = system: MM1S (Plasma Cell Myeloma)
In short: as §1

SMILES | combination Emax [1] | combination Emax [2] | combination Emax [3] | combination Emax [4] | combination Emax [5] | combination Emax [6] | combination Emax [7] | combination Emax [8] | combination Emax [9] | combination Emax [10] | combination Emax [11] | combination Emax [12] | combination Emax [13] | combination Emax [14] | combination Emax [15] | combination Emax [16] | combination Emax [17] | combination Emax [18] | combination Emax [19]
CC(=O)c1c(C)c2cnc(Nc3ccc(N4CCNCC4)cn3)nc2n(C2CCCC2)c1=O [Palbociclib] + Cc1c2c(nn1C)CSCc1cc(n(C)n1)CSc1cc(c3ccccc3c1)OCCCc1c(C(=O)O)n(C)c3c-2c(Cl)ccc13 [AZD5991] (first compound max 10 µM, 7x7, partner max 1 µM) | 0.169 | 0.413 | 0.146 | 0.365 | 0.328 | 0.208 | 0.349 | 0.374 | 0.307 | 0.686 | 0.675 | 0.412 | 0.258 | 0.467 | 0.277 | 0.202 | 0.167 | 0.21 | 0.26
COc1nnc2ccc(N3CCC(c4ccc(OCCN5CCN(C)C(=O)[C@H]5C)cc4)CC3)nn12 [AZD5153] + CCN(CCO)CCCOc1ccc2c(Nc3cc(CC(=O)Nc4cccc(F)c4)[nH]n3)ncnc2c1 [AZD2811] (first compound max 1 µM, 7x7, partner max 1 µM) | 0.333 | 0.494 | 0.495 | 0.581 | 0.41 | 0.534 | 0.744 | 0.659 | 0.237 | 0.535 | 0.7 | 0.67 | 0.289 | 0.476 | 0.431 | 0.444 | 0.602 | 0.372 | 0.635
Cn1cnc2c(F)c(Nc3ccc(Br)cc3Cl)c(C(=O)NOCCO)cc21 [Selumetinib] + CCN(CCO)CCCOc1ccc2c(Nc3cc(CC(=O)Nc4cccc(F)c4)[nH]n3)ncnc2c1 [AZD2811] (first compound max 10 µM, 7x7, partner max 1 µM) | 0.282 | 0.29 | 0.321 | 0.335 | 0.284 | 0.664 | 0.23 | 0.271 | 0.257 | 0.671 | 0.846 | 0.678 | 0.361 | 0.324 | 0.408 | 0.415 | 0.182 | 0.68 | 0.283
Cn1cnc2c(F)c(Nc3ccc(Br)cc3Cl)c(C(=O)NOCCO)cc21 [Selumetinib] + C=CCn1c(=O)c2cnc(Nc3ccc(N4CCN(C)CC4)cc3)nc2n1-c1cccc(C(C)(C)O)n1 [AZD1775] (first compound max 10 µM, partner max 1 µM) | 0.395 | 0.34 | 0.303 | 0.463 | 0.342 | 0.686 | 0.223 | 0.697 | 0.666 | 0.747 | 0.828 | 0.6 | 0.527 | 0.93 | 0.395 | 0.452 | 0.626 | 0.607 | 0.746
CC(=O)c1c(C)c2cnc(Nc3ccc(N4CCNCC4)cn3)nc2n(C2CCCC2)c1=O [Palbociclib] + CC1(C)CCC(CN2CCN(c3ccc(C(=O)NS(=O)(=O)c4ccc(NCC5CCOCC5)c([N+](=O)[O-])c4)c(Oc4cnc5[nH]ccc5c4)c3)CC2)=C(c2ccc(Cl)cc2)C1 [Venetoclax] (first compound max 10 µM, 7x7, partner max 1 µM) | 0.114 | 0.237 | 0.0106 | 0.152 | 0.223 | 0.135 | 0.134 | 0.259 | 0.331 | 0.559 | 0.431 | 0.383 | 0.237 | 0.354 | 0.173 | 0.0364 | 0.0774 | 0.057 | 0.308
CC(=O)c1c(C)c2cnc(Nc3ccc(N4CCNCC4)cn3)nc2n(C2CCCC2)c1=O [Palbociclib] + Cn1cnc2c(F)c(Nc3ccc(Br)cc3Cl)c(C(=O)NOCCO)cc21 [Selumetinib] (first compound max 10 µM, 7x7, partner max 10 µM) | 0.338 | 0.265 | 0.188 | 0.303 | 0.354 | 0.718 | 0.306 | 0.254 | 0.223 | 0.817 | 0.813 | 0.509 | 0.401 | 0.457 | 0.344 | 0.377 | 0.185 | 0.647 | 0.253
C[C@@H](c1ccc2nccn2c1)n1nnc2ncc(-c3cnn(C)c3)nc21 [Savolitinib] + CC1(C)CCC(CN2CCN(c3ccc(C(=O)NS(=O)(=O)c4ccc(NCC5CCOCC5)c([N+](=O)[O-])c4)c(Oc4cnc5[nH]ccc5c4)c3)CC2)=C(c2ccc(Cl)cc2)C1 [Venetoclax] (first compound max 1 µM, 7x7, partner max 1 µM) | 0.117 | 0.153 | 0.12 | 0.0589 | 0.138 | 0.162 | 0.229 | 0.392 | 0.207 | 0.0816 | 0.14 | 0.453 | 0.124 | 0.0882 | 0.163 | 0.101 | 0.0969 | 0.104 | 0.116
C[C@@H](c1ccc2nccn2c1)n1nnc2ncc(-c3cnn(C)c3)nc21 [Savolitinib] + Cc1c2c(nn1C)CSCc1cc(n(C)n1)CSc1cc(c3ccccc3c1)OCCCc1c(C(=O)O)n(C)c3c-2c(Cl)ccc13 [AZD5991] (first compound max 1 µM, 7x7, partner max 1 µM) | 0.0768 | 0.23 | 0.176 | 0.187 | 0.133 | 0.154 | 0.197 | 0.488 | 0.23 | 0.128 | 0.133 | 0.435 | 0.104 | 0.114 | 0.142 | 0.183 | 0.195 | 0.151 | 0.225
Cn1cnc2c(F)c(Nc3ccc(Br)cc3Cl)c(C(=O)NOCCO)cc21 [Selumetinib] + C[C@@H]1COCCN1C2=NC(=NC(=C2)C3(CC3)[S@](=N)(=O)C)C4=C5C=CNC5=NC=C4 [AZD6738] (first compound max 10 µM, 7x7, partner max 10 µM) | 0.358 | 0.158 | 0.214 | 0.468 | 0.463 | 0.767 | 0.36 | 0.809 | 0.494 | 0.811 | 0.883 | 0.506 | 0.74 | 0.894 | 0.598 | 0.502 | 0.4 | 0.595 | 0.475
CN(C)CCCOc1ccc(-c2ccc3ncc4c(c3c2)n(C2CCOCC2)c(=O)n4C)cn1 [AZD0156] + O=C(c1cc(Cc2n[nH]c(=O)c3ccccc23)ccc1F)N1CCN(C(=O)C2CC2)CC1 [Olaparib] (first compound max 3 µM, partner max 3 µM) | 0.152 | 0.366 | 0.139 | 0.239 | 0.359 | 0.201 | 0.41 | 0.306 | 0.16 | 0.293 | 0.362 | 0.287 | 0.228 | 0.419 | 0.284 | 0.164 | 0.227 | 0.21 | 0.881
C[C@@H](c1ccc2nccn2c1)n1nnc2ncc(-c3cnn(C)c3)nc21 [Savolitinib] + CN(CC[C@H](CSC1=CC=CC=C1)NC2=C(C=C(C=C2)S(=O)(=O)NC(=O)C3=CC=C(C=C3)N4CCC(CC4)[C@H](C5=CC=CC=C5C6=CC=C(C=C6)Cl)O)S(=O)(=O)C(F)(F)F)CCO [AZD4320] (first compound max 1 µM, 7x7, partner max 1 µM) | 0.439 | 0.252 | – | 0.212 | 0.0896 | 0.251 | 0.275 | 1 | – | – | 0.176 | – | – | – | 0.903 | – | 0.131 | 0.411 | 0.974
CC(=O)c1c(C)c2cnc(Nc3ccc(N4CCNCC4)cn3)nc2n(C2CCCC2)c1=O [Palbociclib] + CN(CC[C@H](CSC1=CC=CC=C1)NC2=C(C=C(C=C2)S(=O)(=O)NC(=O)C3=CC=C(C=C3)N4CCC(CC4)[C@H](C5=CC=CC=C5C6=CC=C(C=C6)Cl)O)S(=O)(=O)C(F)(F)F)CCO [AZD4320] (first compound max 10 µM, 7x7, partner max 1 µM) | 0.529 | 0.344 | – | 0.599 | 0.223 | 0.229 | 0.521 | 0.992 | – | – | 0.598 | – | – | – | 0.889 | – | 0.204 | 0.183 | 0.964
COc1nnc2ccc(N3CCC(c4ccc(OCCN5CCN(C)C(=O)[C@H]5C)cc4)CC3)nn12 [AZD5153] + CN(CC[C@H](CSC1=CC=CC=C1)NC2=C(C=C(C=C2)S(=O)(=O)NC(=O)C3=CC=C(C=C3)N4CCC(CC4)[C@H](C5=CC=CC=C5C6=CC=C(C=C6)Cl)O)S(=O)(=O)C(F)(F)F)CCO [AZD4320] (first compound max 1 µM, 7x7, partner max 1 µM) | 0.399 | 0.472 | – | 0.55 | 0.511 | 0.718 | 0.823 | 1 | – | – | 0.737 | – | – | – | 1 | – | 0.601 | 0.413 | 1
